Data from patent US20140135326A1, “METHOD OF TREATMENT OF AGGRESSION” (Supernus Pharmaceuticals, Inc., priority 2012, published 2014).

Assays:
Assay type in all cases: in vivo, human
[1] = test system: impulsive aggression in ADHD patients; assay: Phase IIb study, R-MOAS score change from baseline
Protocol: (§1) A Phase IIb study was conducted for the treatment of impulsive aggression in Attention Deficit and Hyperactivity Disorder (ADHD) patients with a pharmaceutical preparation of molindone. The study was a multi-center randomized, double-blind, placebo controlled clinical trial in children 6 to 12 diagnosed with ADHD and characterized by impulsive aggression that is not controlled by optimal stimulant and psychosocial treatment. It was a dose finding study with the primary objective of identifying an effective dose range in children of different weight or age groups. The children were divided into two […] (i.e., less than 30 kg and greater than or equal to 30 kg). The low, medium, and high doses for the under 30 kg group were 12 mg, 24 mg, and 36 mg, respectively. Similarly, the low, medium, and high doses for the 30 kg and over group were 18 mg, 36 mg, and 54 mg, respectively. Three doses of molindone were studied with the primary endpoints of (a) effect in reducing impulsive aggression (measured with change in the score of the Retrospective-Modified Overt Aggression Scale “R-MOAS” at the end of the study from the baseline), and (b) rate of remission of aggression, after at least three weeks of treatment. Secondary objectives included safety and tolerability of molindone as well as the effect on the Clinical Global Impression and the Oppositional […] Disorder subscale score of the SNAP-IV Questionnaire and other endpoints [e.g., SNAP, clinical labs, AEs, etc.]. Patients who completed the study were offered the opportunity to continue into an open-label phase of six months duration.

[2] = test system: impulsive aggression in ADHD patients; assay: Phase IIb study, rate of remission of aggression (R-MOAS ≦ 10); details: for Remission Rate at End of Study (Visit 10): R-MOAS ≦ 10, LOCF
Protocol: as §1

[3] = Phase IIb study, safety and tolerability; details: throughout the study, across all doses
Protocol: A Phase IIb study was conducted for the treatment of impulsive aggression in Attention Deficit and Hyperactivity Disorder (ADHD) patients with a pharmaceutical preparation of molindone. The study was a multi-center randomized, double-blind, placebo controlled clinical trial in children 6 to 12 diagnosed with ADHD and characterized by impulsive aggression that is not controlled by optimal stimulant and psychosocial treatment. It was a dose finding study with the primary objective of identifying an effective dose range in children of different weight or age groups. The children were divided into two […] (i.e., less than 30 kg and greater than or equal to 30 kg). The low, medium, and high doses for the under 30 kg group were 12 mg, 24 mg, and 36 mg, respectively. Similarly, the low, medium, and high doses for the 30 kg and over group were 18 mg, 36 mg, and 54 mg, respectively. Three doses of molindone were studied with the primary endpoints of (a) effect in reducing impulsive aggression (measured with change in the score of the Retrospective-Modified Overt Aggression Scale “R-MOAS” at the end of the study from the baseline), and (b) rate of remission of aggression, after at least three weeks of treatment. Secondary objectives included safety and tolerability of molindone as well as the effect on the Clinical Global Impression and the Oppositional […] […]

Q: With `CCc1c(C)[nH]c2c1C(=O)C(CN1CCOCC1)CC2` (stereo not drawn) [molindone] as the molecule, how does the “efficacy across any of the measures” value ([1]; 30 kg or more, high dose (54 mg)) read?
A: did not show efficacy

Q: And the “R-MOAS (LOCF) Change from Baseline, mean (SD)” value (shortened to “R-MOAS (LOCF) Change … (SD)”) ([1]; <30 kg, high dose (36 mg))?
A: −16.4 (36.90)

Q: And the “R-MOAS (LOCF) End of treatment (visit 10), mean (SD)” value (“R-MOAS (LOCF) End … (SD)” below) ([1]; <30 kg, high dose (36 mg))?
A: 32.2 (24.14)

Q: What about the “R-MOAS (LOCF) Change … (SD)” value ([1]; <30 kg, low dose (12 mg)) of the same molecule?
A: −25.1 (23.00)

Q: And the “R-MOAS (LOCF) End … (SD)” value ([1]; <30 kg, low dose (12 mg))?
A: 34.2 (27.29)

Q: What about the “R-MOAS (LOCF) Change … (SD)” value ([1]; <30 kg, medium dose (24 mg)) of the same molecule?
A: −30.7 (31.22)

Q: What about the “R-MOAS (LOCF) End … (SD)” value ([1]; <30 kg, medium dose (24 mg)) of the same molecule?
A: 38.5 (36.70)

Q: And the “statistical significance vs placebo on the R-MOAS endpoint” value ([1]; patients under 30 kg, the studied doses (12, 24, 36 mg))?
A: did not show statistical significance

Q: And the “R-MOAS (LOCF) Change … (SD)” value ([1]; ≧30 kg, high dose (54 mg))?
A: −23.0 (27.55)

Q: What about the “R-MOAS (LOCF) End … (SD)” value ([1]; ≧30 kg, high dose (54 mg)) of the same molecule?
A: 28.8 (40.60)

Q: And the “R-MOAS (LOCF) Change … (SD)” value ([1]; ≧30 kg, low dose (18 mg))?
A: −41.7(32.48)

Q: And the “R-MOAS (LOCF) End … (SD)” value ([1]; ≧30 kg, low dose (18 mg))?
A: 9.8 (13.01)

Q: And the “R-MOAS (LOCF) Change … (SD)” value ([1]; ≧30 kg, medium dose (36 mg))?
A: −40.9(34.84)

Q: And the “R-MOAS (LOCF) End … (SD)” value ([1]; ≧30 kg, medium dose (36 mg))?
A: 13.5(15.71)

Q: And the “Remission, Treatment vs Placebo Odds Ratio” value ([2]; <30 kg, high dose (36 mg))?
A: 0.62

Q: And the “Remission, Treatment vs Placebo Odds Ratio” value ([2]; <30 kg, low dose (12 mg))?
A: 1.53

Q: And the “Remission, Treatment vs Placebo Odds Ratio” value ([2]; <30 kg, medium dose (24 mg))?
A: 1.36

Q: And the “Remission Rate at End of Study (Visit 10)” value (“Remission Rate at End” for short) ([2]; <30 kg, high dose (36 mg))?
A: 3 (21.4) n(%)

Q: What about the “Remission Rate at End” value ([2]; <30 kg, low dose (12 mg)) of the same molecule?
A: 4 (33.3) n(%)

Q: And the “Remission Rate at End” value ([2]; <30 kg, medium dose (24 mg))?
A: 4 (26.7) n(%)

Q: And the “Remission Rate at End” value ([2]; ≧30 kg, high dose (54 mg))?
A: 7 (41.2) n(%)

Q: And the “Remission Rate at End” value ([2]; ≧30 kg, low dose (18 mg))?
A: 10 (66.7) n(%)

Q: And the “Remission Rate at End” value ([2]; ≧30 kg, medium dose (36 mg))?
A: 8 (53.3) n(%)

Q: And the “Remission, Treatment vs Placebo Odds Ratio” value ([2]; ≧30 kg, high dose (54 mg))?
A: 4.07

Q: What about the “Remission, Treatment vs Placebo Odds Ratio” value ([2]; ≧30 kg, low dose (18 mg)) of the same molecule?
A: 12.08

Q: And the “Remission, Treatment vs Placebo Odds Ratio” value ([2]; ≧30 kg, medium dose (36 mg))?
A: 7.07

Q: What about the tolerability [3] of the same molecule?
A: well tolerated
